According to ChEMBL document CHEMBL1201862, “PubChem BioAssay data set” (2004):
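Interpolation was linear, between the two tested concentrations surrounding the appropriate level; five concentrations were tested over 48 hours in 96-well plates. GI50: concentration for 50% inhibition of growth.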 Calls of active or inactive are those of the source. No stated cut-off is given here; in the data, active = GI50 up to about 1.1 µM and inactive = higher.

How the values were obtained:
Assay in all cases: DTP human tumour cell line panel, 48 h
SN12C = test system: SN12C
HOP-62 = test system: HOP-62
HCT-116 = test system: HCT-116
HCT-15 = test system: HCT-15
MCF7 = test system: MCF7
SF-295 = test system: SF-295
HT-29 = test system: HT-29
RXF 393 = test system: RXF 393
IGROV-1 = test system: IGROV-1
COLO 205 = test system: COLO 205
NCI/ADR-RES = test system: NCI/ADR-RES
HOP-92 = test system: HOP-92
KM12 = test system: KM12
MOLT-4 = test system: MOLT-4
UACC-62 = test system: UACC-62
LOX IMVI = test system: LOX IMVI
MDA-MB-231 = test system: MDA-MB-231
SF-539 = test system: SF-539
NCI-H23 = test system: NCI-H23
OVCAR-3 = test system: OVCAR-3
Malme-3M = test system: Malme-3M
UO-31 = test system: UO-31
M14 = test system: M14
SK-MEL-5 = test system: SK-MEL-5
Hs-578T = test system: Hs-578T
RPMI-8226 = test system: RPMI-8226
T47D = test system: T47D
CCRF-CEM = test system: CCRF-CEM
OVCAR-8 = test system: OVCAR-8
NCI-H226 = test system: NCI-H226
K562 = test system: K562
ACHN = test system: ACHN
SNB-75 = test system: SNB-75
CAKI-1 = test system: CAKI-1
A498 = test system: A498
MDA-MB-435 = test system: MDA-MB-435
EKVX = test system: EKVX
A549 = test system: A549
SR = test system: SR
UACC-257 = test system: UACC-257
BT-549 = test system: BT-549
MDA-N = test system: MDA-N
SF-268 = test system: SF-268
786-0 = test system: 786-0
SK-MEL-2 = test system: SK-MEL-2
TK-10 = test system: TK-10
DU-145 = test system: DU-145
SW-620 = test system: SW-620
SK-OV-3 = test system: SK-OV-3
OVCAR-5 = test system: OVCAR-5
NCI-H522 = test system: NCI-H522
HL-60 = test system: HL-60
SNB-19 = test system: SNB-19
HCC 2998 = test system: HCC 2998
NCI-H460 = test system: NCI-H460
U-251 = test system: U-251
PC-3 = test system: PC-3
OVCAR-4 = test system: OVCAR-4
SK-MEL-28 = test system: SK-MEL-28

## CCc1ccc(Nc2cc(=O)n(C)c(SCc3ccccc3)n2)cc1
SN12C
  GI50: 20 µM (inactive)
HOP-62
  GI50: 69.3 µM (inactive)
HCT-116
  GI50: 18.2 µM (inactive)
HCT-15
  GI50: 62.2 µM
MCF7
  GI50: 28.6 µM (inactive)
SF-295
  GI50: 57.4 µM (inactive)
HT-29
  GI50: 21.9 µM (inactive)
RXF 393
  GI50: 23.1 µM (inactive)
IGROV-1
  GI50: 83.9 µM (inactive)
COLO 205
  GI50: 12.7 µM (inactive)
NCI/ADR-RES
  GI50: > 100 µM (inactive)
HOP-92
  GI50: 20.3 µM (inactive)
KM12
  GI50: 66.4 µM (inactive)
MOLT-4
  GI50: > 100 µM (inactive)
UACC-62
  GI50: > 100 µM (inactive)
LOX IMVI
  GI50: 33 µM (inactive)
MDA-MB-231
  GI50: 59.7 µM (inactive)
SF-539
  GI50: 30.2 µM (inactive)
NCI-H23
  GI50: > 100 µM (inactive)
OVCAR-3
  GI50: 29.4 µM (inactive)
Malme-3M
  GI50: 57.3 µM (inactive)
UO-31
  GI50: > 100 µM (inactive)
M14
  GI50: > 100 µM (inactive)
SK-MEL-5
  GI50: 51.2 µM (inactive)
Hs-578T
  GI50: 97.3 µM (inactive)
RPMI-8226
  GI50: > 10 µM (inactive)
T47D
  GI50: 95.3 µM (inactive)
CCRF-CEM
  GI50: 78 µM (inactive)
OVCAR-8
  GI50: > 100 µM (inactive)
NCI-H226
  GI50: 33.4 µM (inactive)
K562
  GI50: > 100 µM (inactive)
ACHN
  GI50: 75.3 µM (inactive)
SNB-75
  GI50: > 100 µM (inactive)
CAKI-1
  GI50: > 100 µM (inactive)
A498
  GI50: 14.5 µM (inactive)
MDA-MB-435
  GI50: 80.4 µM (inactive)
EKVX
  GI50: 60.5 µM (inactive)
A549
  GI50: 29 µM (inactive)
SR
  GI50: 35.7 µM (inactive)
UACC-257
  GI50: > 100 µM (inactive)
BT-549
  GI50: > 100 µM (inactive)
MDA-N
  GI50: > 100 µM (inactive)
SF-268
  GI50: 97.7 µM (inactive)
786-0
  GI50: 17.5 µM (inactive)
SK-MEL-2
  GI50: > 100 µM (inactive)
TK-10
  GI50: > 100 µM (inactive)
DU-145
  GI50: > 100 µM (inactive)
SW-620
  GI50: 41.6 µM (inactive)
SK-OV-3
  GI50: 85.1 µM (inactive)
OVCAR-5
  GI50: 30.8 µM (inactive)
NCI-H522
  GI50: 36.1 µM (inactive)
HL-60
  GI50: 39.8 µM (inactive)
SNB-19
  GI50: 52.6 µM (inactive)

## N=c1c2ccccc2nc2oc3cc([N+](=O)[O-])ccc3n12
SN12C
  GI50: 35.6 µM (inactive)
HOP-62
  GI50: 18.1 µM (inactive)
HCT-116
  GI50: 25.6 µM (inactive)
HCC 2998
  GI50: > 100 µM (inactive)
HCT-15
  GI50: > 100 µM
MCF7
  GI50: > 100 µM (inactive)
SF-295
  GI50: 19.3 µM (inactive)
HT-29
  GI50: > 100 µM (inactive)
RXF 393
  GI50: 7.38 µM (inactive)
IGROV-1
  GI50: 27.4 µM (inactive)
NCI-H460
  GI50: 36.9 µM (inactive)
U-251
  GI50: 15.5 µM (inactive)
COLO 205
  GI50: > 100 µM (inactive)
NCI/ADR-RES
  GI50: 18.6 µM (inactive)
KM12
  GI50: > 100 µM (inactive)
MOLT-4
  GI50: > 100 µM (inactive)
UACC-62
  GI50: 47.3 µM (inactive)
PC-3
  GI50: 54.2 µM (inactive)
LOX IMVI
  GI50: 21 µM (inactive)
MDA-MB-231
  GI50: 25.1 µM (inactive)
SF-539
  GI50: 22.3 µM (inactive)
OVCAR-4
  GI50: 21.3 µM (inactive)
NCI-H23
  GI50: 16.6 µM (inactive)
OVCAR-3
  GI50: 25.7 µM (inactive)
Malme-3M
  GI50: 25.9 µM (inactive)
UO-31
  GI50: 16.6 µM (inactive)
M14
  GI50: > 100 µM (inactive)
SK-MEL-5
  GI50: 71.6 µM (inactive)
Hs-578T
  GI50: 4.23 µM (inactive)
RPMI-8226
  GI50: > 100 µM (inactive)
T47D
  GI50: < 0.01 µM (active)
CCRF-CEM
  GI50: > 100 µM (inactive)
OVCAR-8
  GI50: 20.9 µM (inactive)
NCI-H226
  GI50: 15 µM (inactive)
K562
  GI50: > 100 µM (inactive)
ACHN
  GI50: 23.7 µM (inactive)
SNB-75
  GI50: 5.61 µM (inactive)
CAKI-1
  GI50: 25.4 µM (inactive)
MDA-MB-435
  GI50: > 100 µM (inactive)
EKVX
  GI50: 2.21 µM (inactive)
A549
  GI50: 40.1 µM (inactive)
SR
  GI50: > 100 µM (inactive)
UACC-257
  GI50: > 100 µM (inactive)
BT-549
  GI50: 20.2 µM (inactive)
MDA-N
  GI50: > 100 µM (inactive)
SF-268
  GI50: 27.4 µM (inactive)
786-0
  GI50: 24.7 µM (inactive)
SK-MEL-2
  GI50: 94.2 µM (inactive)
TK-10
  GI50: 19.6 µM (inactive)
SW-620
  GI50: 61.1 µM (inactive)
SK-OV-3
  GI50: 17.9 µM (inactive)
OVCAR-5
  GI50: 28.2 µM (inactive)
NCI-H522
  GI50: 32.2 µM (inactive)
SK-MEL-28
  GI50: 74 µM (inactive)
SNB-19
  GI50: 24.9 µM (inactive)
